{
  "source": "patent US12678434B2",
  "about": "“Compositions and methods for modulating ACE2 receptor” (priority 2020, dated 2026)",
  "key": {"[1]": {"test_system": "SARS-CoV-2", "assay": "Medication use in COVID-19 positive and negative patients (retrospective propensity-score-matched study of hospitalized patients)", "assay_type": "in vivo, human", "conditions": "for SARS-CoV-2 Positive Test Result, percentage of patients (infection rate): drug use group of PS-matched sample, hospitalized patients Jan. 1, 2020 to Dec. 30, 2020; for difference in SARS-CoV-2 infection rates between drug use and no drug use: PS-matched groups, significance defined as p<0.05"}, "[2]": {"molecular_target": "T1, Human recombinant ACE2 (Homo sapiens, UniProt Q9BYF1)", "T1 construct": "purchased R&D systems, Minneapolis, USA", "T1 sequence (Q9BYF1 18-740 limits assumed)": "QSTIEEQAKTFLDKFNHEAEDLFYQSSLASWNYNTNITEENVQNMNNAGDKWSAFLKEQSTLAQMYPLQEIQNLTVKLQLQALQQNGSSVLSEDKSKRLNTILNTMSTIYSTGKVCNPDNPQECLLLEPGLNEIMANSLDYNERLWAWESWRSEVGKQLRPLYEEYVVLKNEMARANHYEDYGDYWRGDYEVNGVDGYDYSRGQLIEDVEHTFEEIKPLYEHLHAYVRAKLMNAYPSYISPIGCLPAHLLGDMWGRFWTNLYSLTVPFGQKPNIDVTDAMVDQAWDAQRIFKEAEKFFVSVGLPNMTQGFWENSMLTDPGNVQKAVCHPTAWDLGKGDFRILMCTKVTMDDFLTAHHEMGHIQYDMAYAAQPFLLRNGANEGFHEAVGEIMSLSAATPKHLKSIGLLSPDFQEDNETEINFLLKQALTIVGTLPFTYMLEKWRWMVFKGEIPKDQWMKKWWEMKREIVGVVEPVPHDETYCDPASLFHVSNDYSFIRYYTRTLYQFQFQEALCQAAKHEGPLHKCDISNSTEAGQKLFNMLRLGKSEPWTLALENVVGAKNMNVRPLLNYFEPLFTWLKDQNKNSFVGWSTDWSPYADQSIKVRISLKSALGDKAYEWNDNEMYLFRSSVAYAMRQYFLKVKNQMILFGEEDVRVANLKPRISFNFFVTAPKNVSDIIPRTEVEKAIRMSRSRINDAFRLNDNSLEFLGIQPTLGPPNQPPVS", "assay_type": "biochemical"}, "[3]": {"test_system": "VERO-E6 cells", "assay_type": "cell-based, monkey", "conditions": "100 μM drug for 6 hours without FBS, then spike protein (30 ug) for 12 hours"}, "[4]": {"conditions": "SARS-CoV-2 positive patients, drug use group, PS-matched"}, "[5]": {"conditions": "patients who tested positive in PS-matched sample"}},
  "note": "Entries after “also recorded” stand apart in the source; their conditions may differ.",
  "data": [
    {"smiles": "O=C(O)COCCN1CCN([C@H](c2ccccc2)c2ccc(Cl)cc2)CC1", "note": "[Levocetirizine, levocetirizine]", "values": [
      {"measurement": "SARS-CoV-2 Positive Test Result, percentage of patients (infection rate)", "setting": "[1]", "value": 15.38, "unit": "%"},
      {"measurement": "fluorescence signal (ACE2 activity) upon further addition of drug", "setting": "[2]", "value": "further decreased"},
      {"measurement": "spike protein in the cell lysate (western blot)", "setting": "[3]", "value": "no spike protein"}
    ]},
    {"smiles": "CN/C(=N/CCSCc1nc[nH]c1C)NC#N", "note": "[Cimetidine]", "values": [
      {"measurement": "SARS-CoV-2 Positive Test Result, percentage of patients (infection rate)", "setting": "[1]", "value": 35.71, "unit": "%"}
    ]},
    {"smiles": "CN(C)CCC(c1ccc(Cl)cc1)c1ccccn1", "note": "(centres unmarked) [Chlorpheniramine]", "values": [
      {"measurement": "SARS-CoV-2 Positive Test Result, percentage of patients (infection rate)", "setting": "[1]", "value": 16.67, "unit": "%"}
    ]},
    {"smiles": "CN(C)CCOC(c1ccccc1)c1ccccc1", "note": "[Diphenhydramine]", "values": [
      {"measurement": "SARS-CoV-2 Positive Test Result, percentage of patients (infection rate)", "setting": "[1]", "value": 12.8, "unit": "%"},
      {"measurement": "concentration at transition point from inhibiting to activating the ACE2 receptor", "setting": "[2]", "value": 1, "unit": "µM"},
      {"measurement": "spike protein in the cell lysate (western blot)", "setting": "[3]", "value": "no spike protein"}
    ]},
    {"smiles": "O=C(O)COCCN1CCN(C(c2ccccc2)c2ccc(Cl)cc2)CC1", "note": "(centres unmarked) [Cetirizine]", "values": [
      {"measurement": "SARS-CoV-2 Positive Test Result, percentage of patients (infection rate)", "setting": "[1]", "value": 17.97, "unit": "%"}
    ]},
    {"smiles": "CCOC(=O)N1CCC(=C2c3ccc(Cl)cc3CCc3cccnc32)CC1", "note": "[Loratadine]", "values": [
      {"measurement": "SARS-CoV-2 Positive Test Result, percentage of patients (infection rate)", "setting": "[1]", "value": 18.65, "unit": "%"}
    ]},
    {"smiles": "CN1CCC[C@H](n2nc(Cc3ccc(Cl)cc3)c3ccccc3c2=O)CC1", "note": "[S-Azelastine]", "values": [
      {"measurement": "concentration at transition point from inhibiting to activating the ACE2 receptor", "setting": "[2]", "value": 1, "unit": "µM"}
    ]},
    {"smiles": "O=C(O)COCCN1CCN([C@@H](c2ccccc2)c2ccc(Cl)cc2)CC1", "note": "[S-Cetirizine, dextrocetirizine]", "values": [
      {"measurement": "fluorescence signal (ACE2 activity) upon further addition of drug", "setting": "[2]", "value": "further decreased"}
    ]},
    {"smiles": "CN(C)CCC(c1ccc(Br)cc1)c1ccccn1", "note": "(centres unmarked) [Brompheniramine]", "values": [
      {"measurement": "SARS-CoV-2 Positive Test Result, percentage of patients (infection rate)", "setting": "[1]", "value": 33.33, "unit": "%"}
    ]},
    {"smiles": "OCCOCCN1CCN(C(c2ccccc2)c2ccc(Cl)cc2)CC1", "note": "(centres unmarked) [Hydroxyzine]", "values": [
      {"measurement": "difference in SARS-CoV-2 infection rates between drug use and no drug use", "setting": "[1]", "value": "statistically significantly different"},
      {"measurement": "difference in SARS-CoV-2 infection rates between drug use and no drug use", "setting": "[1]; listed as hydroxyzine", "value": "significant difference; also recorded: lower infection rates"},
      {"measurement": "ICU Admission, number of patients", "setting": "[1]; [4]", "value": 5},
      {"measurement": "ICU Admission, percentage of patients", "setting": "[1]; [4]", "value": 19.23, "unit": "%"},
      {"measurement": "ICU LOS (length of stay), mean (standard deviation)", "setting": "[1]; [4]", "value": "22.4 (26.43)"},
      {"measurement": "SARS-CoV-2 Positive Test Result, percentage of patients (infection rate)", "setting": "[1]", "value": 12.62, "unit": "%"},
      {"measurement": "Odds Ratio for SARS-CoV-2 infection", "setting": "[1]; multiple logistic regression model, drug use as covariate, PS-matched sample", "value": 0.919},
      {"measurement": "difference in ICU admission rates between drug use and no drug use", "setting": "[1]; [5]", "value": "not a significant difference"},
      {"measurement": "difference in ICU length of stay between drug use and no drug use", "setting": "[1]; [5]", "value": "not a significant difference"},
      {"measurement": "fluorescence signal (ACE2 activity) upon further addition of drug", "setting": "[2]", "value": "increased"},
      {"measurement": "spike protein in the cell lysate (western blot)", "setting": "[3]", "value": "no spike protein"}
    ]},
    {"smiles": "CN1CCC[C@@H](n2nc(Cc3ccc(Cl)cc3)c3ccccc3c2=O)CC1", "note": "[R-Azelastine]", "values": [
      {"measurement": "concentration at transition point from inhibiting to activating the ACE2 receptor", "setting": "[2]", "value": 1, "unit": "µM"},
      {"measurement": "spike protein in the cell lysate (western blot)", "setting": "[3]", "value": "no spike protein"}
    ]},
    {"smiles": "CN1CCCC(n2nc(Cc3ccc(Cl)cc3)c3ccccc3c2=O)CC1", "note": "(centres unmarked) [Azelastine]", "values": [
      {"measurement": "SARS-CoV-2 Positive Test Result, percentage of patients (infection rate)", "setting": "[1]", "value": 7.69, "unit": "%"}
    ]},
    {"smiles": "CN1CCC(=C2c3ccccc3CC(=O)c3sccc32)CC1", "note": "[Ketotifen]", "values": [
      {"measurement": "SARS-CoV-2 Positive Test Result, percentage of patients (infection rate)", "setting": "[1]", "value": "0 (0%)"}
    ]},
    {"smiles": "CN(C)CC/C=C1/c2ccccc2COc2ccc(CC(=O)O)cc21", "note": "[Olopatadine]", "values": [
      {"measurement": "SARS-CoV-2 Positive Test Result, percentage of patients (infection rate)", "setting": "[1]", "value": 18.75, "unit": "%"}
    ]},
    {"smiles": "CNC(=C[N+](=O)[O-])NCCSCc1ccc(CN(C)C)o1", "note": "[Ranitidine]", "values": [
      {"measurement": "SARS-CoV-2 Positive Test Result, percentage of patients (infection rate)", "setting": "[1]", "value": 15.29, "unit": "%"}
    ]},
    {"smiles": "CC(C)(C(=O)O)c1ccc(C(O)CCCN2CCC(C(O)(c3ccccc3)c3ccccc3)CC2)cc1", "note": "(centres unmarked) [Fexofenadine]", "values": [
      {"measurement": "SARS-CoV-2 Positive Test Result, percentage of patients (infection rate)", "setting": "[1]", "value": 18.92, "unit": "%"}
    ]},
    {"smiles": "NC(N)=Nc1nc(CSCCC(N)=NS(N)(=O)=O)cs1", "note": "[Famotidine]", "values": [
      {"measurement": "SARS-CoV-2 Positive Test Result, percentage of patients (infection rate)", "setting": "[1]", "value": 18.87, "unit": "%"}
    ]}
  ]
}
